From patent publication US6841563B1, “Aryloxy propanolamines for improving livestock production” (Eli Lilly and Company, priority 1999, dated 2005)

Key:
[1] = Intravenous administration to cattle: serum non-esterified fatty acid (NEFA) and serum urea nitrogen (SUN) levels; type: in vivo
From the text: Intravenous administration of the compounds of the present invention to cattle increases serum non-esterified fatty acids and decreases serum urea. In this Example, angus/angus cross calves, both heifers and steers, weighing approximately 282 pounds (128 kg) initially to 788 pounds (357.8 kg) over the course of these studies, were placed in pens at 5 calves per pen. The cattle were acclimated to the pens for at least 1 week prior to initiating the study.
Calves were fed ad libitum twice daily, (approximately 6-15 pounds (2.7-6.8 kg)/day). During the treatment day, in the A.M. period, the feeding times were staggered to ensure that all animals were fed approximately one hour before the treatments were administered. During the P.M. treatment period, the cattle were fed immediately after receiving the P.M. injection.
After taking a pretreatment (T=O) blood sample from each animal, a 40 μg per kilogram dose of a test compound was administered intravenously in the jugular vein at 6:30 A.M. and 2:30 P.M. Each test compound was administered at a concentration of 1.00-1.25 mg/ml in a treatment vehicle that was a 50/50 mixture of polyethylene glycol 200/water.
A blood sample was taken at fifteen minutes post-treatment (T+15 min). The calves were returned to their respective pens until their next treatment, approximately eight hours later. The next morning at 6:30 A.M. a blood sample was collected from all calves at 24 hours post-treatment (T+24 h). All blood samples were analyzed for the non-esterified fatty acid level (NEFA) and serum urea nitrogen level (SUN). The post-treatment NEFA and SUN levels in each individual animal were compared with the levels found before treatment.

[2] = 28-day cattle study, orally administered Compound 6: growth and carcass measurements; type: in vivo; settings: for Feed efficiency / Yield grade (YG) / area of the longissimus dorsi muscle at the twelfth rib: oral, 28 days
Method: Thirty-two Angus crossbred steers were blocked by weight into a heavy (4 heaviest blocks, avg. initial BW=1226 lb. (557 kg)) and a light (4 lightest blocks, avg. initial BW=1164 lb. (528 kg)) replication. The steers within each block were assigned to one of four treatments (8 steers/treatment) to investigate the effects of orally administered Compound 6 on the growth and carcass measurements when fed to cattle for 28 days immediately prior to slaughter. The treatments included a CONTROL (0.0 mg Compound 6 per kg BW), and three levels of Compound 6 (LOW, 0.125 mg Compound 6 per kg BW; MED, 0.250 mg Compound 6 per kg BW; HIGH, 0.500 mg Compound 6 per kg BW). Compound 6 was mixed with ground corn and fed to the steers as a top dress on a portion of their daily feed. The CONTROL steers received a similar amount of a ground corn top dress. The steers were required to consume the initial feed and top dress before the remaining amount of feed was issued. The basal ration was a commercially available feed (19.3% CP, DM basis). Both feed and water were available ad libitum. The steers were individually housed in 12 ft×48 ft pens equipped with an individual feed bunk and automatic waterer. On day 28 the steers were weighed and a blood sample collected prior to being shipped for slaughter and subsequent carcass evaluation.

CC(C)(Cc1ccc(Oc2ncccc2C(N)=O)cc1)NC[C@H](O)COc1cccc2[nH]ccc12 [Compound 6, (S)-2-[4-[2-[2-Hydroxy-3-(1H-indol-4-yloxy)propylamino]-2-methylpropyl]-phenoxy]-3-pyridinecarboxamide]
ΔNEFA 24 Hours ([1]; 40 μg per kilogram i.v. twice, T+24 h minus T=0, mean of five animals): -1.44 µmol/L | ΔNEFA 15 Min. ([1]; 40 μg per kilogram i.v., T+15 min minus T=0, mean of five animals): 40.7 µmol/L | change in vivo at 0.04 mg/kg ([1]; Bos taurus, iv, 40 μg per kilogram i.v. twice, 24 hours post treatment vs baseline T=0, mean of five animals, read-out: Δ% SUN 24 Hours): -47% | lipolytic effects (non-esterified fatty acid levels) ([1]; fifteen minutes and twenty-four hours after administration): modest lipolytic effects | anabolic effects (change in serum urea nitrogen levels) ([1]; twenty-four hours after administration, compared with the corresponding carboxamide regioisomers): significantly greater | Conformation score ([2]; Compound 6 treatments vs CONTROL, P<0.005): higher | Fat thickness at the twelfth rib ([2]; Compound 6 treatments vs CONTROL, P>0.78): not different | Dressing percent ([2]; Compound 6 treatments vs CONTROL, F-test P=0.1138, Treatment P<0.05): to be higher | Feed efficiency ([2]; HIGH, 0.500 mg per kg BW): 4.18 pound of feed per pound of gain | Yield grade (YG) ([2]; HIGH, 0.500 mg per kg BW): 2.46 | area of the longissimus dorsi muscle at the twelfth rib ([2]; HIGH, 0.500 mg per kg BW): 14.5 in^2 | Feed efficiency ([2]; LOW, 0.125 mg per kg BW): 4.36 pound of feed per pound of gain | area of the longissimus dorsi muscle at the twelfth rib ([2]; LOW, 0.125 mg per kg BW): 13.5 in^2 | Yield grade (YG) ([2]; LOW, 0.125 mg per kg BW, lower value = more saleable meat): 2.76 | Feed efficiency ([2]; MED, 0.250 mg per kg BW): 4.19 pound of feed per pound of gain | Yield grade (YG) ([2]; MED, 0.250 mg per kg BW): 2.51 | area of the longissimus dorsi muscle at the twelfth rib ([2]; MED, 0.250 mg per kg BW): 14.3 in^2 | carcass composition (% fat, % protein, % moisture, % bone) ([2]; among the treatments, P>0.12, calculated by Hankins and Howe equations): did not differ statistically | USDA quality grade and marbling scores ([2]; among the treatments, P>0.90): Neither the USDA quality grade nor marbling scores differed | Daily dry matter intake ([2]; between the treatments (CONTROL, LOW, MED, HIGH), P>0.47): did not differ
